Source: US20230026232A1, “AHR INHIBITORS AND USES THEREOF” (Ikena Oncology, Inc., priority 2019, published 2023)

Legend:
[1] = Intrinsic dissolution in 0.5% Tween 80; assay type: physicochemical; conditions: 0.5% Tween 80, 100 rpm, 37° C.
Experimental: Milled and as-received API samples were weighed and compressed into a compact using a hydraulic press at 3,000 psi for 60 seconds. Compacts were mounted on intrinsic dissolution apparatus and dissolution study was conducted using USP dissolution apparatus in 250 mL of 0.5% Tween 80 solution at 100 rpm at 37° C. in duplicate. Aliquots (1.0 mL) of dissolution media are taken at selected time-points from each dissolution vessel at 5 minute intervals from 5 to 40 minutes. Each sample was centrifuged at 14,000 rpm for 3 minutes and the supernatant was samples and diluted with diluent for HPLC analysis (Table 7). The retention time of Compound A is about 1.5 minutes.
The Intrinsic dissolution performance of the jet-milled API vs. as received API was conducted to observe any increase in dissolution by particle size reduction. FIG. 8 and Table 15 below show the intrinsic dissolution results.

[2] = Nonclinical safety studies incl. 28-day GLP study in monkeys; assay type: in vivo
Description: The nonclinical safety of Compound A has been evaluated in a series of pharmacological, single-dose and repeated-dose toxicological studies in rodent and non-rodent species including 28-day Good Laboratory Practice (GLP) studies in rat and monkeys. […] All changes were resolved or resolving after 2 weeks of dosing cessation, except for the testicular changes in rats. The nonclinical safety assessment from these studies supports clinical evaluation of Compound A in humans. The initial planned dose of Compound A for this study is 200 mg once daily (QD), based on evaluation of the Compound A nonclinical safety data.
During dose escalation, a minimum of 3 patients are required at each dose. Depending on accrual rate and occurrence of DLTs, 3, 4, 5, or 6 patients may be enrolled at each new dose until the last of those patients completes the 21-day DLT assessment period. Based on the mTPI-2 design, the number of patients who are enrolled at a dose but are not yet fully evaluable for DLT assessment may not exceed the number of remaining patients who are at risk of developing a DLT before the dose would be considered unacceptably toxic. In general, 3 to 14 patients can be enrolled at a given dose level. Administration of Compound A to the first 2 patients in each new dose cohort is staggered by a minimum of 15 hours.

[3] = Phase 1 dose-escalation study: interim cohort pharmacokinetics; assay type: in vivo, human; conditions: Cycle 2 Day 1 (C2D1)
Experimental: Serial blood samples are obtained to characterize the plasma PK of Compound A and its major active metabolites. The initial sampling strategy is based on the predicted human PK of this compound. If in the course of evaluating the PK, it is determined that an alternative sampling scheme would be more informative, then that alternative sampling scheme may be implemented if the total amount of blood and blood draws obtained for PK is not increased. Moreover, the total number of samples may be decreased at any time if the initial sampling scheme is considered unnecessarily intensive.
Interim cohort pharmacokinetics were assessed on parent (Compound A) and two active metabolites (Compound B and Compound C). […] Compound B metabolite ratio is increased on C2D1 in cohorts above 200 mg dosages. […] Without wishing to be bound or limited by theory, elimination rate limited kinetics likely contributing to the accumulation of Compound B through on-target inhibition of CYP1A1.

[4] = molecular target: T1, AHR (Homo sapiens, UniProt P35869); test: IL-22 secretion by CD3/CD28 activated human T cells (Meso Scale Discovery); assay type: cell-based; design: endogenous in cells; conditions: 48 hours
T1 sequence (P35869 11-848): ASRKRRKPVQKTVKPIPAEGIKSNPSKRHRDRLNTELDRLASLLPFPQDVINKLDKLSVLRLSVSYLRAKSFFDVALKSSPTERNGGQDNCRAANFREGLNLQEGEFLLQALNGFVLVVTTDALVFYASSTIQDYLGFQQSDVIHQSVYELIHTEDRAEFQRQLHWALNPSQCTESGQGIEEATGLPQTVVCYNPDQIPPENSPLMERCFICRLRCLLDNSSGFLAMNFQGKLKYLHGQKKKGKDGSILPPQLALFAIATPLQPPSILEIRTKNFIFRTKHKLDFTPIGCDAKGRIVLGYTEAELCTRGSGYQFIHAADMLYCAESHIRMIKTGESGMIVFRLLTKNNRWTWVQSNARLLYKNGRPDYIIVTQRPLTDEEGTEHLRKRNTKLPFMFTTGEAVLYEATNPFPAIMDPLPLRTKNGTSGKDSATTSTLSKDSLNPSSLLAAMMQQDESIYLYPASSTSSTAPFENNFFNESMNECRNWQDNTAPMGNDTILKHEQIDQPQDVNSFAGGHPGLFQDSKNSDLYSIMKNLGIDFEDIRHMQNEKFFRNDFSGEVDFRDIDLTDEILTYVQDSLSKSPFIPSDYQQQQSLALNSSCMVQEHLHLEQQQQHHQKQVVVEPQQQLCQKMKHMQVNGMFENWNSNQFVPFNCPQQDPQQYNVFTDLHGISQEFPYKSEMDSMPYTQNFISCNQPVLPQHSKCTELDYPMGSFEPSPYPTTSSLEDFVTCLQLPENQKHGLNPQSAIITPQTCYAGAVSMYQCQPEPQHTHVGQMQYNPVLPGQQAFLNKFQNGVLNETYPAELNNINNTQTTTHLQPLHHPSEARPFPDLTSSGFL
Experimental: AHR plays a key role in immune cells and its' inhibition is proposed to reverse immune suppression and activate T cells. The ability of Compound A to inhibit AHR-dependent CYP1A1 expression and cytokine production was assessed in primary human T cells. AHR directly regulates the expression of the immune suppressive cytokine IL-22. Human T cells isolated from healthy donor PBMCs were activated with CD3/CD28 tetramer and incubated for 24 hours with Compound A. Cell pellets were processed for RNA isolation and CYP1A1 analysis by quantitative reverse-transcriptase polymerase chain reaction. For the cytokine analysis assay, CD3/CD28 activated T cells were treated with Compound A, and culture supernatants were collected after 48 hours for analysis of IL-22 levels using Meso Scale Discovery V-plex IL-22 plates. Compound A inhibited AHR-dependent gene expression in activated human T cells by decreasing expression of CYP1A1 in a concentration-dependent manner.

[5] = test system: AHR; test: AHR activity in human and rodent cell lines (summary); assay type: cell-based
Description: Compound A is a selective AHR antagonist being developed as an orally administered therapeutic. […] Compound A inhibits CYP1A1 and interleukin (IL)-22 gene expression and leads to an increase in pro-inflammatory cytokines, such as IL-2 and IL-9.

Which results are given for `CC(C)c1cnn2c(N[C@@H]3CCc4[nH]c5ccccc5c4C3)nc(-c3cncc(F)c3)nc12` [Compound A, (R)—N-(2-(5-fluoropyridin-3-yl)-8-isopropylpyrazolo[1,5-a][1,3,5]triazin-4-yl)-2,3,4,9-tetrahydro-1H-carbazol-3-amine]?
IDR (intrinsic dissolution rate) [1]: 0.85 ug/min*cm^2; noteworthy findings in nonclinical safety studies ([2]; monkey): decreased thymus weights and cortical lymphocytes; AUC ([2]; monkey, primates, plasma, read-out: AUC where QTc increases are noted): 188 µg·h/mL; Cmax ([2]; monkey, primates, plasma, read-out: Cmax where QTc increases are noted): 11200 ng/mL; QTc prolongation ([2]; monkeys): up to 11%; dose proportionality of PK [3]: greater than dose proportional; IC50 [4]: 7 nM; IC50 [5]: 35 to 150 nM
